In ChEMBL document CHEMBL5055629, “Design and synthesis of Grp94 selective inhibitors based on Phe199 induced fit mechanism and their anti-inflammatory effects” (Eur J Med Chem, 2021):
pIC50, pKd: −log10 of the molar value. In brackets after ≈: the same amount, converted by molar mass.

What was measured:
Endoplasmin [1] = molecular target: T1, Endoplasmin (Canis lupus familiaris, UniProt P41148); assay: Inhibition of GST-tagged dog GRP94 (69 to 337 residues) expressed in Escherichia coli BL21 (DE3) measured after 4 hrs by fluorescent polarization assay
[2] = molecular target: T2, Heat shock protein HSP 90-alpha (Homo sapiens, UniProt P07900); assay: Binding affinity to Hsp90alpha (unknown origin) by fluorescent polarization assay
[3] = Clearance in Sprague-Dawley rat at 10 mg/kg, iv measured after 24 hrs by LC-MS/MS analysis; assay type: ADME, organism-based; conditions: in vivo
[4] = molecular target: T2, Heat shock protein HSP 90-alpha; conditions: dose 1.1-30 µM
Description: Binding affinity to His-tagged human N-terminal HSP90alpha (1 to 236 residues) expressed in Escherichia coli BL21 (DE3) assessed as association constant at 1.1 to 30 uM measured by BLI assay

[5] = Cmax in Sprague-Dawley rat at 10 mg/kg, iv measured after 24 hrs by LC-MS/MS analysis; assay type: ADME, organism-based; parameters: dose 10 mg/kg, time 24 hrs, route iv; conditions: in vivo
[6] = molecular target: Endoplasmin (Canis lupus familiaris) (UniProt P41148); conditions: dose 0.37-10 µM
Description: Binding affinity to GST-tagged dog GRP94 (69 to 337 residues) expressed in Escherichia coli BL21 (DE3) assessed as association constant at 0.37 to 10 uM measured by BLI assay

[7] = AUC (0 to infinity) in Sprague-Dawley rat at 40 mg/kg, po measured after 24 hrs by LC-MS/MS analysis; assay type: ADME, organism-based; parameters: dose 40 mg/kg, time 24 hrs, route po; conditions: in vivo
Mus musculus [8] = assay: Anti-ulcerative colitis activity against DSS-induced Ulcerative colitis C57BL/6 mouse model assessed as disease activity index at 10 mg/kg, ip measured for 8 days (reference value: 8.37+/-0.3); assay type: functional; conditions: time 8 day
[9] = Permeability of compound at pH 7.4; assay type: ADME; conditions: not told, read-out: permeability
[10] = Oral bioavailability in Sprague-Dawley rat at 40 mg/kg measured after 24 hrs by LC-MS/MS analysis; assay type: ADME, organism-based; conditions: in vivo
[11] = Tmax in Sprague-Dawley rat at 40 mg/kg, po measured after 24 hrs by LC-MS/MS analysis; assay type: ADME, organism-based; conditions: in vivo
[12] = Aqueous solubility of compound; assay type: physicochemical; conditions: buffer
[13] = Lipophilicity, logD of compound at pH 7.4; assay type: physicochemical; conditions: buffer
[14] = Clearance in Sprague-Dawley rat at 40 mg/kg, po measured after 24 hrs by LC-MS/MS analysis; assay type: ADME, organism-based; conditions: in vivo
[15] = Metabolic stability in human microsomes assessed as clearance in presence of NADPH at 10 uM measured after 120 mins by LC-MS/MS analysis; assay type: ADME, Microsome; conditions: 2 h
[16] = AUC (0 to infinity) in Sprague-Dawley rat at 10 mg/kg, iv measured after 24 hrs by LC-MS/MS analysis; assay type: ADME, organism-based; parameters: dose 10 mg/kg, time 24 hrs, route iv; conditions: in vivo
[17] = Half life in Sprague-Dawley rat at 40 mg/kg, po measured after 24 hrs by LC-MS/MS analysis; assay type: ADME, organism-based; conditions: in vivo
[18] = Metabolic stability in human microsomes assessed as half life in presence of NADPH at 10 uM measured after 120 mins by LC-MS/MS analysis; assay type: ADME, Microsome
[19] = molecular target: T2, Heat shock protein HSP 90-alpha; assay: Binding affinity to His-tagged human N-terminal HSP90alpha (1 to 236 residues) expressed in Escherichia coli BL21 (DE3) assessed as dissociation rate constant at 1.1 to 30 uM measured by BLI assay
Endoplasmin [20] = molecular target: T1, Endoplasmin; assay: Binding affinity to GST-tagged dog GRP94 (69 to 337 residues) expressed in Escherichia coli BL21 (DE3) assessed as dissociation rate constant at 0.37 to 10 uM measured by BLI assay
[21] = Apparent volume of distribution in Sprague-Dawley rat at 10 mg/kg, iv measured after 24 hrs by LC-MS/MS analysis; assay type: ADME, organism-based; conditions: in vivo
[22] = Tmax in Sprague-Dawley rat at 10 mg/kg, iv measured after 24 hrs by LC-MS/MS analysis; assay type: ADME, organism-based; conditions: in vivo
Mus musculus [23] = assay: Anti-ulcerative colitis activity against DSS-induced Ulcerative colitis C57BL/6 mouse model assessed as disease activity index at 50 mg/kg, ip measured for 8 days (reference value: 8.37+/-0.3); assay type: functional; conditions: time 8 day
[24] = Apparent volume of distribution in Sprague-Dawley rat at 40 mg/kg, po measured after 24 hrs by LC-MS/MS analysis; assay type: ADME, organism-based; conditions: in vivo
Mus musculus [25] = assay: Anti-ulcerative colitis activity against DSS-induced Ulcerative colitis C57BL/6 mouse model assessed as disease activity index at 30 mg/kg, ip measured for 8 days (reference value: 8.37+/-0.3); assay type: functional; conditions: time 8 day
[26] = Cmax in Sprague-Dawley rat at 40 mg/kg, po measured after 24 hrs by LC-MS/MS analysis; assay type: ADME, organism-based; parameters: time 24 hrs, dose 40 mg/kg, route po; conditions: in vivo
Mus musculus [27] = assay: Toxicity in DSS-induced Ulcerative colitis C57BL/6 mouse model assessed as effect on liver weight index at 10 to 50 mg/kg, ip measured after 8 days; conditions: in vivo, 192 h
Mus musculus [28] = assay: Toxicity in DSS-induced Ulcerative colitis C57BL/6 mouse model assessed as loss of body weight at 10 to 50 mg/kg, ip measured for 9 days; assay type: organism-based; conditions: in vivo, 216 h, dose 10-50 mg/kg, time 9 day
[29] = Half life in Sprague-Dawley rat at 10 mg/kg, iv measured after 24 hrs by LC-MS/MS analysis; assay type: ADME, organism-based; conditions: in vivo
[30] = Metabolic stability in mouse microsomes assessed as clearance in presence of NADPH at 10 uM measured after 120 mins by LC-MS/MS analysis; assay type: ADME, Microsome; conditions: 2 h
[31] = Metabolic stability in mouse microsomes assessed as half life in presence of NADPH at 10 uM measured after 120 mins by LC-MS/MS analysis; assay type: ADME, Microsome
Endoplasmin [32] = molecular target: Endoplasmin (Homo sapiens, UniProt P14625); assay: Binding affinity to Grp94 (unknown origin) by fluorescent polarization assay
Chain of Endoplasmin (Homo sapiens, UniProt P14625) (P14625 whole entry): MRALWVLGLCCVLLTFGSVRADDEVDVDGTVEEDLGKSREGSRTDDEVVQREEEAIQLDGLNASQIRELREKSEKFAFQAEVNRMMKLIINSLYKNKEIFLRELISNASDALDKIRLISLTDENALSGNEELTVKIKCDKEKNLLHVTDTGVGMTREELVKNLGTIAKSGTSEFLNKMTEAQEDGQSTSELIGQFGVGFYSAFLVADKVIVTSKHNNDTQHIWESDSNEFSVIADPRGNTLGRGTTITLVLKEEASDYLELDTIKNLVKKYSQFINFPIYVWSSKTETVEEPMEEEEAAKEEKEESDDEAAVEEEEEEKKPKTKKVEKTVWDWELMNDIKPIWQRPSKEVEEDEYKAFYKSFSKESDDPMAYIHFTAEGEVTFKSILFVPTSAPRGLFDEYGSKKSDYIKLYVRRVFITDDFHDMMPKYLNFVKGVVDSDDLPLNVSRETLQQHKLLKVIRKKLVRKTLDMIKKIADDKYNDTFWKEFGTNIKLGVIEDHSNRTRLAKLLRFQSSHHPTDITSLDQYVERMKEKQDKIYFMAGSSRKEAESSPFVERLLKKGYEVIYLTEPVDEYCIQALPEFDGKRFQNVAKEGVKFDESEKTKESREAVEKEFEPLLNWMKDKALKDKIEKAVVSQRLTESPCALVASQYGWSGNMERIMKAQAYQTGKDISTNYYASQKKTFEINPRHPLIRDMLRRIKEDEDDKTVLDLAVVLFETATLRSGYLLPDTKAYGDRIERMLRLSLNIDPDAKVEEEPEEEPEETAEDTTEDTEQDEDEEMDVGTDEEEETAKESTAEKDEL

T1 sequence (P41148 whole entry, the tested form may be a part): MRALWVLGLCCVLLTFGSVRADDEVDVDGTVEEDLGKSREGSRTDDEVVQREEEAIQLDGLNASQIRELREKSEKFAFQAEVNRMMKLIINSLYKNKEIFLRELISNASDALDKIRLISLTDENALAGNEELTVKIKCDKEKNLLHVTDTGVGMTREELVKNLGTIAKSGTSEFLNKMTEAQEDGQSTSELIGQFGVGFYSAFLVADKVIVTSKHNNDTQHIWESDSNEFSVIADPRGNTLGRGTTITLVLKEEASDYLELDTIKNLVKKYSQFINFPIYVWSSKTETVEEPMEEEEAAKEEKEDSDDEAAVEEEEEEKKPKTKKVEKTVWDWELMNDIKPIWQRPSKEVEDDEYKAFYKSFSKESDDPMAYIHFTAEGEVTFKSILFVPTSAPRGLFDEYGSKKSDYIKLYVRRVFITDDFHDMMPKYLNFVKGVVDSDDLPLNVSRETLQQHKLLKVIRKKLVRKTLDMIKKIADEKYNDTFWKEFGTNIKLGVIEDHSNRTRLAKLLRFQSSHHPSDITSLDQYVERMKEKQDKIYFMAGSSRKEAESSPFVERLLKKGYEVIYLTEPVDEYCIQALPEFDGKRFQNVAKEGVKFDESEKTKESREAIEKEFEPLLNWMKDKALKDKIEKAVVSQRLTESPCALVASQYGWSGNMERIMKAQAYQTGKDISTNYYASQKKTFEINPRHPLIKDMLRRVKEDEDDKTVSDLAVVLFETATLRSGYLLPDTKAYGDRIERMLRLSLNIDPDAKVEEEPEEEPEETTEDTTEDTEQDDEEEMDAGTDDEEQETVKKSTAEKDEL
Chain of Endoplasmin (Canis lupus familiaris) (P41148 whole entry): as the sequence (P41148 whole entry, the tested form may be a part) above

CCCCC#Cc1ccc(NC2CCCN(C(C)=O)C2)c(C(N)=O)c1 (stereo not drawn)
pIC50 (Endoplasmin [1]): 5.69

CCCCC#Cc1ccc(NC2CCN(C(=O)CN3CCOCC3)CC2)c(C(N)=O)c1
pIC50 (Endoplasmin [1]): 5.83

CCCCC#Cc1ccc(NC2CCN(C(=O)C3CC3)CC2)c(C(N)=O)c1
pIC50 (Endoplasmin [1]): 6.28

CC(C)C#Cc1ccc(N[C@H]2CC[C@H](O)CC2)c(C(N)=O)c1
pIC50 (Endoplasmin [1]): 6.04

CCCCC#Cc1ccc(NCC2CCOCC2)c(C(N)=O)c1
pIC50 (Endoplasmin [1]): 6.41

CCCCC#Cc1ccc(NCC2CCN(C(=O)C3CC3)CC2)c(C(N)=O)c1
pIC50 (Endoplasmin [1]): 5.62

CCCCC#Cc1ccc(NCC2CCOC2)c(C(N)=O)c1 (stereo not drawn)
pIC50 (Endoplasmin [1]): 6.02

CCCCC#Cc1ccc(NCCOCC)c(C(N)=O)c1
pIC50 (Endoplasmin [1]): 5.12

CC(C)(C)C#Cc1ccc(N[C@H]2CC[C@H](O)CC2)c(C(N)=O)c1
pIC50 (Endoplasmin [1]): 6.49

NC(=O)c1cc(C#CC2CCCCC2)ccc1N[C@H]1CC[C@H](O)CC1
pIC50 (Endoplasmin [1]): 6.68

NC(=O)c1cc(C#CC2CCCC2)ccc1N[C@H]1CC[C@H](O)CC1
pIC50 (Endoplasmin [1]): 7.00

CN(C)CC#Cc1ccc(N[C@H]2CC[C@H](O)CC2)c(C(N)=O)c1
pIC50 (Endoplasmin [1]): 4.20

CCCCC#Cc1ccc(NCC2CCNCC2)c(C(N)=O)c1
pIC50 (Endoplasmin [1]): 4.78

CCOc1ccccc1Cn1ccnc1CCc1c(Cl)c(O)cc(O)c1C(=O)OC
pKd [2]: 5.09

CCCCC#Cc1ccc(NCCCOCC)c(C(N)=O)c1
pIC50 (Endoplasmin [1]): 5.48

CC(C)CC#Cc1ccc(N[C@H]2CC[C@H](O)CC2)c(C(N)=O)c1
pIC50 (Endoplasmin [1]): 6.50

CCCCC#Cc1ccc(N[C@H]2CC[C@H](O)CC2)c(C(N)=O)c1
CL [3]: 111 mL/min/kg
Ka [4]: 1.22 10^5/M/s
Cmax [5]: 2410 ng/mL
Ka [6]: 2.56 10^5/M/s
AUC [7]: 0.95 µg/mL/h
Activity_index (Mus musculus [8]): 3.04
Papp [9]: 97.9 ×10⁻⁶ cm/s
bioavailability [10]: 15.7%
Tmax [11]: 0.38 h
solubility [12]: 11 µg/mL (≈ 35 µM)
logD [13]: 3.69
CL [14]: 72.8 mL/min/kg
CL [15]: 12.8 µL/min/mg
AUC [16]: 1.51 µg/mL/h
t1/2 [17]: 4.69 h
half-life at 10 µM [18]: 5.78 h
koff [19]: 1.14 10^-2/s
koff (Endoplasmin [20]): 2.84 10^-2/s
Vz [21]: 1.47 L/kg
Tmax [22]: 3 min
Activity_index (Mus musculus [23]): 1.76
Vz [24]: 2.81 L/kg
Activity_index (Mus musculus [25]): 2.3
Cmax [26]: 600 ng/mL
Activity (Mus musculus [27]): Non-Toxic
Activity (Mus musculus [28]): Non-Toxic
t1/2 [29]: 15.25 h
CL [30]: 11 µL/min/mg
pIC50 (Endoplasmin [1]): 7.22
half-life at 10 µM [31]: 1.8 h

CC(C)CCC#Cc1ccc(N[C@H]2CC[C@H](O)CC2)c(C(N)=O)c1
pIC50 (Endoplasmin [1]): 6.28

NC(=O)c1cc(C#CCCCCl)ccc1N[C@H]1CC[C@H](O)CC1
pIC50 (Endoplasmin [1]): 6.69

CCCCC#Cc1ccc(NC2CCOC2)c(C(N)=O)c1 (stereo not drawn)
pIC50 (Endoplasmin [1]): 6.51

CCCCC#Cc1ccc(NC2CCN(C(=O)CN(C)C)CC2)c(C(N)=O)c1
pIC50 (Endoplasmin [1]): 5.96

CCCCC#Cc1ccc(NC2CCN(C(=O)CCN3CCOCC3)CC2)c(C(N)=O)c1
pIC50 (Endoplasmin [1]): 6.01

CCCCC#Cc1ccc(NC2CCN(C(C)=O)CC2)c(C(N)=O)c1
Papp [9]: 94.6 ×10⁻⁶ cm/s
solubility [12]: 16 µg/mL (≈ 46.9 µM)
logD [13]: 3.24
pIC50 (Endoplasmin [1]): 6.69

CCCCC#Cc1ccc(NCC2CCN(C(C)=O)CC2)c(C(N)=O)c1
pIC50 (Endoplasmin [1]): 5.32

CC(C)c1ccc(-c2ccc(N[C@H]3CC[C@H](O)CC3)c(C(N)=O)c2)cc1
Papp [9]: 99.2 ×10⁻⁶ cm/s
solubility [12]: 3.9 µg/mL (≈ 11.1 µM)
logD [13]: 4.59
CL [15]: 25.5 µL/min/mg
half-life at 10 µM [18]: 4.28 h
CL [30]: 13.5 µL/min/mg
pIC50 (Endoplasmin [1]): 7.70
half-life at 10 µM [31]: 1.04 h

CCCCC#Cc1ccc(NC2CCCNC2)c(C(N)=O)c1 (stereo not drawn)
pIC50 (Endoplasmin [1]): 6.20

CC(C)c1cc(C(=O)N2Cc3ccc(CN4CCN(C)CC4)cc3C2)c(O)cc1O [ONALESPIB]
pIC50 (Endoplasmin [1]): 7.89

CCCCC#Cc1ccc(NC2CCN(C(=O)CC3CC3)CC2)c(C(N)=O)c1
pIC50 (Endoplasmin [1]): 6.10

NC(=O)c1cc(C#CC2CC2)ccc1N[C@H]1CC[C@H](O)CC1
pIC50 (Endoplasmin [1]): 6.60

CCCCC#Cc1ccc(NCCOC)c(C(N)=O)c1
pIC50 (Endoplasmin [1]): 4.96

CCCCC#Cc1ccc(NCCCO)c(C(N)=O)c1
pIC50 (Endoplasmin [1]): 5.56

CCCCC#Cc1ccc(NCCNC(C)=O)c(C(N)=O)c1
pIC50 (Endoplasmin [1]): 5.70

CCCCC#Cc1ccc(NCCO)c(C(N)=O)c1
pIC50 (Endoplasmin [1]): 5.17

CCCCC#Cc1ccc(NC2CCNCC2)c(C(N)=O)c1
pIC50 (Endoplasmin [1]): 5.79

CC(C)NCCCn1c(Sc2cc(Cl)cc(Cl)c2)nc2c(N)ncnc21
pKd [2]: < 3.60
pKd (Endoplasmin [32]): 6.66

CCCCC#Cc1ccc(NC2CCOCC2)c(C(N)=O)c1
pIC50 (Endoplasmin [1]): 6.63

CCCCC#Cc1ccc(NCCCOC)c(C(N)=O)c1
pIC50 (Endoplasmin [1]): 5.69

CCN(CC)CC#Cc1ccc(N[C@H]2CC[C@H](O)CC2)c(C(N)=O)c1
pIC50 (Endoplasmin [1]): < 4.00
